Test results from ChEMBL document CHEMBL1201862, “PubChem BioAssay data set” (2004).
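Tested at 5 concentrations; 48 h exposure; 96-well plates; endpoints linearly interpolated, else capped at highest concentration. GI50 = concentration required for 50% inhibition of growth.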 Active and inactive are the calls of the source. No stated cut-off is given here; in the data, active = GI50 up to about 1.1 µM and inactive = higher.

How the values were obtained:
Assay in all cases: growth of human tumour cells (NCI), 48 h
786-0 = test system: 786-0
A498 = test system: A498
A549 = test system: A549
ACHN = test system: ACHN
BT-549 = test system: BT-549
CAKI-1 = test system: CAKI-1
CCRF-CEM = test system: CCRF-CEM
COLO 205 = test system: COLO 205
DU-145 = test system: DU-145
EKVX = test system: EKVX
HCC 2998 = test system: HCC 2998
HCT-116 = test system: HCT-116
HCT-15 = test system: HCT-15
HL-60 = test system: HL-60
HOP-62 = test system: HOP-62
HOP-92 = test system: HOP-92
HT-29 = test system: HT-29
Hs-578T = test system: Hs-578T
IGROV-1 = test system: IGROV-1
K562 = test system: K562
LOX IMVI = test system: LOX IMVI
M14 = test system: M14
MCF7 = test system: MCF7
MDA-MB-231 = test system: MDA-MB-231
MDA-MB-435 = test system: MDA-MB-435
MDA-N = test system: MDA-N
MOLT-4 = test system: MOLT-4
Malme-3M = test system: Malme-3M
NCI-H226 = test system: NCI-H226
NCI-H23 = test system: NCI-H23
NCI-H460 = test system: NCI-H460
NCI-H522 = test system: NCI-H522
NCI/ADR-RES = test system: NCI/ADR-RES
OVCAR-3 = test system: OVCAR-3
OVCAR-4 = test system: OVCAR-4
OVCAR-8 = test system: OVCAR-8
PC-3 = test system: PC-3
RPMI-8226 = test system: RPMI-8226
RXF 393 = test system: RXF 393
SF-268 = test system: SF-268
SF-295 = test system: SF-295
SF-539 = test system: SF-539
SK-MEL-28 = test system: SK-MEL-28
SK-MEL-5 = test system: SK-MEL-5
SK-OV-3 = test system: SK-OV-3
SN12C = test system: SN12C
SNB-19 = test system: SNB-19
SNB-75 = test system: SNB-75
SR = test system: SR
SW-620 = test system: SW-620
T47D = test system: T47D
TK-10 = test system: TK-10
U-251 = test system: U-251
UACC-62 = test system: UACC-62
UO-31 = test system: UO-31
KM12 = test system: KM12
OVCAR-5 = test system: OVCAR-5
SK-MEL-2 = test system: SK-MEL-2
UACC-257 = test system: UACC-257

CCOP(C)(=O)C(N)Cc1ccc(OC)c(OC)c1 (stereo unspecified)
GI50 (786-0): > 100 µM (inactive) | GI50 (A498): > 100 µM (inactive) | GI50 (A549): > 100 µM (inactive) | GI50 (ACHN): > 100 µM (inactive) | GI50 (BT-549): > 100 µM (inactive) | GI50 (CAKI-1): > 100 µM (inactive) | GI50 (CCRF-CEM): > 100 µM (inactive) | GI50 (COLO 205): > 100 µM (inactive) | GI50 (DU-145): > 100 µM (inactive) | GI50 (EKVX): > 100 µM (inactive) | GI50 (HCC 2998): > 100 µM (inactive) | GI50 (HCT-116): > 100 µM (inactive) | GI50 (HCT-15): > 100 µM | GI50 (HL-60): > 100 µM (inactive) | GI50 (HOP-62): > 100 µM (inactive) | GI50 (HOP-92): > 100 µM (inactive) | GI50 (HT-29): > 100 µM (inactive) | GI50 (Hs-578T): > 100 µM (inactive) | GI50 (IGROV-1): > 100 µM (inactive) | GI50 (K562): > 100 µM (inactive) | GI50 (LOX IMVI): > 100 µM (inactive) | GI50 (M14): > 100 µM (inactive) | GI50 (MCF7): > 100 µM (inactive) | GI50 (MDA-MB-231): > 100 µM (inactive) | GI50 (MDA-MB-435): > 100 µM (inactive) | GI50 (MDA-N): > 100 µM (inactive) | GI50 (MOLT-4): > 100 µM (inactive) | GI50 (Malme-3M): > 100 µM (inactive) | GI50 (NCI-H226): > 100 µM (inactive) | GI50 (NCI-H23): > 100 µM (inactive) | GI50 (NCI-H460): > 100 µM (inactive) | GI50 (NCI-H522): > 100 µM (inactive) | GI50 (NCI/ADR-RES): > 100 µM (inactive) | GI50 (OVCAR-3): > 100 µM (inactive) | GI50 (OVCAR-4): > 100 µM (inactive) | GI50 (OVCAR-8): > 100 µM (inactive) | GI50 (PC-3): > 100 µM (inactive) | GI50 (RPMI-8226): > 100 µM (inactive) | GI50 (RXF 393): > 100 µM (inactive) | GI50 (SF-268): > 100 µM (inactive) | GI50 (SF-295): > 100 µM (inactive) | GI50 (SF-539): > 100 µM (inactive) | GI50 (SK-MEL-28): > 100 µM (inactive) | GI50 (SK-MEL-5): > 100 µM (inactive) | GI50 (SK-OV-3): > 100 µM (inactive) | GI50 (SN12C): > 100 µM (inactive) | GI50 (SNB-19): > 100 µM (inactive) | GI50 (SNB-75): > 100 µM (inactive) | GI50 (SR): > 100 µM (inactive) | GI50 (SW-620): > 100 µM (inactive) | GI50 (T47D): > 100 µM (inactive) | GI50 (TK-10): > 100 µM (inactive) | GI50 (U-251): > 100 µM (inactive) | GI50 (UACC-62): > 100 µM (inactive) | GI50 (UO-31): > 100 µM (inactive)

C/C=C1/CN2[C@@H](C3=C[C@@H]4[C@@H]5N(C3=O)c3ccccc3[C@@]53CCN5C/C(=C/C)[C@@H]4C[C@H]53)C[C@@]34c5ccccc5N5C(=O)CC=C([C@H]1C[C@H]23)[C@H]54 [ISOSUNGUCINE]
GI50 (786-0): 2.16 µM (inactive) | GI50 (A498): 6.92 µM (inactive) | GI50 (A549): 7.66 µM (inactive) | GI50 (ACHN): 5.81 µM (inactive) | GI50 (BT-549): 8.34 µM (inactive) | GI50 (CAKI-1): 5.86 µM (inactive) | GI50 (CCRF-CEM): 1.1 µM (active) | GI50 (COLO 205): 1.81 µM (inactive) | GI50 (DU-145): 9.91 µM (inactive) | GI50 (EKVX): 5.66 µM (inactive) | GI50 (HCC 2998): 2.43 µM (inactive) | GI50 (HCT-116): 2.94 µM (inactive) | GI50 (HCT-15): 2.33 µM | GI50 (HL-60): 1.03 µM (active) | GI50 (HOP-62): 7.06 µM (inactive) | GI50 (HOP-92): 5.55 µM (inactive) | GI50 (HT-29): 2.11 µM (inactive) | GI50 (Hs-578T): 6.65 µM (inactive) | GI50 (K562): 2.05 µM (inactive) | GI50 (KM12): 5.41 µM (inactive) | GI50 (M14): 1.18 µM (inactive) | GI50 (MCF7): 3.46 µM (inactive) | GI50 (MDA-MB-231): 2.43 µM (inactive) | GI50 (MDA-MB-435): 5.01 µM (inactive) | GI50 (MDA-N): 3.84 µM (inactive) | GI50 (MOLT-4): 1.46 µM (inactive) | GI50 (Malme-3M): 6.04 µM (inactive) | GI50 (NCI-H226): 7.83 µM (inactive) | GI50 (NCI-H23): 6.85 µM (inactive) | GI50 (NCI-H460): 6.62 µM (inactive) | GI50 (NCI-H522): 6.9 µM (inactive) | GI50 (NCI/ADR-RES): 8.81 µM (inactive) | GI50 (OVCAR-3): 5.85 µM (inactive) | GI50 (OVCAR-4): 6.43 µM (inactive) | GI50 (OVCAR-5): 7.76 µM (inactive) | GI50 (OVCAR-8): 3.91 µM (inactive) | GI50 (PC-3): 2.7 µM (inactive) | GI50 (RXF 393): 2.17 µM (inactive) | GI50 (SF-268): 6.19 µM (inactive) | GI50 (SF-295): 7.73 µM (inactive) | GI50 (SF-539): 1.11 µM (active) | GI50 (SK-MEL-28): 1.42 µM (inactive) | GI50 (SK-MEL-2): 5.32 µM (inactive) | GI50 (SK-MEL-5): 2.75 µM (inactive) | GI50 (SK-OV-3): 8.77 µM (inactive) | GI50 (SN12C): 3.01 µM (inactive) | GI50 (SNB-19): 7.52 µM (inactive) | GI50 (SNB-75): 7.91 µM (inactive) | GI50 (SR): 1.19 µM (inactive) | GI50 (SW-620): 2.92 µM (inactive) | GI50 (T47D): 9.93 µM (inactive) | GI50 (TK-10): 7.85 µM (inactive) | GI50 (U-251): 2.23 µM (inactive) | GI50 (UACC-257): 1.24 µM (inactive) | GI50 (UACC-62): 2.86 µM (inactive) | GI50 (UO-31): 2.32 µM (inactive)
